The text below walks through data of US20230183237A1, “COMPETITIVE AND NONCOMPETITIVE INHIBITORS OF THE MUSCARINIC ACETYLCHOLINE RECEPTOR M5” (Vanderbilt University, priority 2020, published 2023).

Some results are limits rather than exact numbers.

The assay addresses T1, hM5 (Homo sapiens, UniProt P08912).
T1 construct: expressed in transfected cells
T1 sequence (P08912 1-532): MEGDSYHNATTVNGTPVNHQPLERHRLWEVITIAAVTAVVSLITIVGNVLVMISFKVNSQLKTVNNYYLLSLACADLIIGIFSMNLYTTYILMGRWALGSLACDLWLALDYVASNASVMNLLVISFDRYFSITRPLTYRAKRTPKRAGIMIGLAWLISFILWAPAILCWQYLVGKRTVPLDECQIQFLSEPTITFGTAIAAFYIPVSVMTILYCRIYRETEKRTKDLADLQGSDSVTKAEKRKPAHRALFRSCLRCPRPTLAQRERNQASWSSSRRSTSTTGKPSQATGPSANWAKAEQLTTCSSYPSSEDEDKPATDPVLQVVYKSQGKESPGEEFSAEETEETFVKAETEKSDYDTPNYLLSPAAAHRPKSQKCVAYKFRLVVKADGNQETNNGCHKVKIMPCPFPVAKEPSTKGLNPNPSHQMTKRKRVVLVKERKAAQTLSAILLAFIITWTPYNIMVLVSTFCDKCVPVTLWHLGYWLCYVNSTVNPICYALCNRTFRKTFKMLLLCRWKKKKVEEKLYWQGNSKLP
The assay can be described thus: Calcium mobilization concentration-response (IC50 vs EC80 acetylcholine), CHO hM5. In kind it is cell-based. To be noted: CELL LINE hM5; calcium mobilization, EC80 acetylcholine addition; read-out: IC50. The method in brief:
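IC50 values derive from percent maximal acetylcholine response after an EC80 ACh addition, measured as kinetic calcium fluorescence (static ratio, max−min). Test compounds were added 140 s before agonist. Cells: stable hM5-CHO in HEPES-buffered HBSS with 2.5 mM probenecid, pH 7.4; ≥3 independent triplicate determinations.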
The term IC50 denotes the midpoint of a concentration-inhibition curve. In the case of `O=S(=O)(c1cnc2ccccn12)N1CCC(c2cn3ncnc3cc2F)CC1` [Compound 327, 7-fluoro-6-(1-(imidazo[1,2-a]pyridin-3-ylsulfonyl)piperidin-4-yl)-[1,2,4]triazolo[1,5-a]pyridine], the IC50 is 774 nM.

Turning to `O=S(=O)(c1c(Cl)nc2sccn12)N1CCC(c2cn3ncnc3cc2F)CC1` [Compound 328, 6-chloro-5-((4-(7-fluoro-[1,2,4]triazolo[1,5-a]pyridin-6-yl)piperidin-1-yl)sulfonyl)imidazo[2,1-b]thiazole], the IC50 was found to be 327 nM.

On to `Cc1c(S(=O)(=O)N2CCC(c3cn4ncnc4cc3F)CC2)c(Cl)nn1C` [Compound 329, 6-(1-((3-chloro-1,5-dimethyl-1H-pyrazol-4-yl)sulfonyl)piperidin-4-yl)-7-fluoro-[1,2,4]triazolo[1,5-a]pyridine], for which the IC50 was found to be 87 nM.

In the case of `Cn1ncc(S(=O)(=O)N2CCC(c3cn4ncnc4cc3Cl)CC2)c1C(F)(F)F` [Compound 330, 7-chloro-6-(1-((1-methyl-5-(trifluoromethyl)-1H-pyrazol-4-yl)sulfonyl)piperidin-4-yl)-[1,2,4]triazolo[1,5-a]pyridine], the half-maximal inhibitory concentration (IC50) turned out to be 52 nM.

With `CCc1cc2ncnn2cc1C1CCN(S(=O)(=O)c2cnn(C)c2C(F)(F)F)CC1` [Compound 331, 7-ethyl-6-(1-((1-methyl-5-(trifluoromethyl)-1H-pyrazol-4-yl)sulfonyl)piperidin-4-yl)-[1,2,4]triazolo[1,5-a]pyridine], the IC50 is 2600 nM.

With `Cc1c(S(=O)(=O)N2CCC(c3cn4ncnc4cc3-c3ccn(C)n3)CC2)cnn1C` [Compound 332, 6-(1-((1,5-dimethyl-1H-pyrazol-4-yl)sulfonyl)piperidin-4-yl)-7-(1-methyl-1H-pyrazol-3-yl)-[1,2,4]triazolo[1,5-a]pyridine], the half-inhibitory concentration (IC50) was greater than 10000 nM.

`Cn1ccc(-c2cc3ncnn3cc2C2CCN(S(=O)(=O)c3cnn4c3CCCC4)CC2)n1` [Compound 333, 7-(1-methyl-1H-pyrazol-3yl)-6-(1-((4,5,6,7-tetrahydropyrazolo[1,5-a]pyridin-3-yl)sulfonyl)piperidin-4-yl)-[1,2,4]triazolo[1,5-a]pyridine]: the IC50 is greater than 10000 nM.

As to `CCc1cc2ncnn2cc1C1CCN(S(=O)(=O)c2cnc3ccccn23)CC1` [Compound 334, 7-ethyl-6-(1-(imidazo[1,2-a]pyridin-3-ylsulfonyl)piperidin-4-yl)-[1,2,4]triazolo[1,5-a]pyridine], the IC50 was 341 nM.

Take `CCc1cc2ncnn2cc1C1CCN(S(=O)(=O)c2cnc3n2CCCC3)CC1` [Compound 335, 7-ethyl-6-(1-((5,6,7,8-tetrahydroimidazo[1,2-a]pyridin-3-yl)sulfonyl)piperidin-4-yl)-[1,2,4]triazolo[1,5-a]pyridine]: the concentration for half-maximal inhibition (IC50) was 83 nM.

As for `CCc1cc2ncnn2cc1C1CCN(S(=O)(=O)c2c(Cl)nc3sccn23)CC1` [Compound 336, 6-chloro-5-((4-(7-ethyl-[1,2,4]triazolo[1,5-a]pyridin-6-yl)piperidin-1-yl)sulfonyl)imidazo[2,1-b]thiazole], the IC50 is 106 nM.

Take `CCc1cc2ncnn2cc1C1CCN(S(=O)(=O)c2c(Cl)nn(C)c2C)CC1` [Compound 337, 6-(1-((3-chloro-1,5-dimethyl-1H-pyrazol-4-yl)sulfonyl)piperidin-4-yl)-7-ethyl-[1,2,4]triazolo[1,5-a]pyridine]: the IC50 came to 37 nM.

With `O=S(=O)(c1cnc2ccccn12)N1CCC(c2cn3ncnc3cc2C(F)(F)F)CC1` [Compound 338, 6-(1-(imidazo[1,2-a]pyridin-3-yl)sulfonyl)piperidin-4-yl)-7-(trifluoromethyl_-[1,2,4]triazolo[1,5-a]pyridine], the IC50 stood at 164 nM.

With `O=S(=O)(c1cnc2n1CCCC2)N1CCC(c2cn3ncnc3cc2C(F)(F)F)CC1` [Compound 339, 6-(1-((5,6,7.8-tetrahydroimidazo[1,2-a]pyridin-3-yl)sulfonyl)piperidin-4-yl)-7-(trifluoromethyl)-[1,2,4]triazolo[1,5-a]pyridine], the half-inhibitory concentration (IC50) worked out at 67 nM.
